In patent US20230250095A1, “BENZIMIDAZOLE DERIVATIVES, PREPARATION METHOD THEREFOR AND MEDICAL USE THEREOF” (TUOJIE BIOTECH(SHANGHAI) CO., LTD., priority 2020, published 2023):

How the values were obtained:
[1] = In vivo pharmacokinetic experiment in rats, intragastric administration; conditions: SD rats, 5 mg/kg
Description: The drug concentrations in the plasma of the test animals (rats) at different time points after intragastric administration of the compound of the present disclosure were determined by an LC/MS/MS method. The pharmacokinetic behavior in rats of the compound of the present disclosure was studied and its pharmacokinetic profile was evaluated.
Male, healthy SD rats of SPF grade, 6-8 weeks old, 3 rats in each group.
Intragastric administration: a certain amount of compound was weighed and prepared into a 1 mg/mL white suspension by adding 0.5% by volume of hydroxypropyl methylcellulose, 0.1% by volume of tween 80 and 99.4% by volume of water.
SD rats were administered intragastrically with compound 4 or BLU-5937 at a dose of 5 mg/kg after fasting overnight.
Rats were administered intragastrically with the compound of the present disclosure. 0.2 mL of blood was collected from the jugular vein at 0.25 h, 0.5 h, 1 h, 2 h, 4 h, 8 h and 24 h after the administration, placed in a tube containing EDTA-K2, separated by centrifugation at 4° C. at 4000 rpm for 5 min to obtain plasma, which was stored at −75° C.
Determination of the content of the test compounds at different concentrations in the plasma of rats after intragastric administration: 50 μL of rat plasma at each time point after the administration was taken, 200 μL of a solution of internal standard dexamethasone (50 ng/mL) in acetonitrile was added thereto, and the mixture was vortexed for 30 s to be mixed well, centrifuged at 4° C. at 4700 rpm for 15 min. The supernatant of the plasma sample was subjected to 3-fold dilution with water, and 2.0 μL of the dilution was taken for LC/MS/MS analysis.

[2] = Caco-2 permeability assay; format: in vitro ADME; conditions: human
Description: The apparent permeability coefficient (Papp) of the analytical drug was determined by liquid chromatography-tandem mass spectrometry (LC/MS/MS) through a Caco-2 cell model.
The transfer rate of drug from the apical end to the basal end was determined. 108 μL of HBSS (25 mM HEPES, pH 7.4) containing 10 μM test compound was added to the apical end of the upper chamber of Transwell (purchased from Corning) containing Caco-2 cells (purchased from ATCC) at a density of 6.86×10^5 cells/cm^2, and meanwhile, 8 μL of the sample was added, as an initial dosing-end sample (A-B), to a new 96-well plate to which 72 μL of HBSS (25 mM HEPES, pH 7.4) and 240 μL of acetonitrile (containing 100 nM alprazolam, 200 nM caffeine and 100 nM tolbutamide) had been added, and the plate was vortexed at 1000 rpm for 10 min. 300 μL of HBSS (25 mM HEPES, pH 7.4) was added to the basal end.
The transfer rate of drug from the basal end to the apical end was determined. 308 μL of HBSS (25 mM HEPES, pH 7.4) containing 10 μM test compound was added to wells of the basal end of the plate, and meanwhile, 8 μL of the sample was added, as an initial dosing-end sample (B-A), to a new 96-well plate to which 72 μL of HBSS (25 mM HEPES, pH 7.4) and 240 μL of acetonitrile (containing 100 nM alprazolam, 200 nM caffeine and 100 nM tolbutamide) had been added. The plate was vortexed at 1000 rpm for 10 min, and 100 μL of HBSS (25 mM HEPES, pH 7.4) was added to the apical end.
The transfer rate from the apical end to the basal end and the transfer rate from the basal end to the apical end need to be determined simultaneously.
At the end of the transfer cycle, 8 μL of the sample was taken from the dosing end (apical end of A-B flow and basal end of B-A flow) and added to 72 μL of HBSS (25 mM HEPES, pH 7.4) and 240 μL of acetonitrile (containing 100 nM alprazolam, 200 nM caffeine and 100 nM tolbutamide), and the mixture was added to a new 96-well plate. 80 μL of the liquid was taken directly from each of the basal end of the A-B flow and the apical end of the B-A flow, and added together with 240 μL of acetonitrile (containing 100 nM alprazolam, 200 nM caffeine and 100 nM tolbutamide) to a new 96-well plate. The plates were vortexed at 1000 rpm for 10 min. The samples were centrifuged at 4000 rpm for 30 min. 100 μL of the supernatant was transferred to a new 96-well plate. All samples were analyzed by LC-MS/MS with 100 μL of pure water.
Data were calculated using Microsoft Excel and peak areas were calculated from the chromatograms. The apparent permeability coefficient (Papp) is in cm/s and is calculated using the following formula: […]
Papp is apparent permeability (cm/s×10^−6);
The outflow ratio can be determined by the following equation: […]

V [1]: 1.09 L/kg
Tmax ([1]; male, rat, plasma, po): 0.25 h
half-life ([1]; male, rat, plasma, po): 2.9 h
AUC(0-t) ([1]; male, rat, po, plasma): 361 ng·h/mL
Cmax ([1]; male, rat, po, plasma): 151 ng/mL
Papp A→B at 10 μM ([2]; Caco-2, 10 μM test compound, apical to basal, pH 7.4): 2.4 ×10⁻⁶ cm/s
efflux ratio at 10 μM ([2]; Caco-2, Papp (B-A)/Papp (A-B), read-out: Outflow ratio): 1.2
Compound: CNC(=O)c1cc(F)c(-c2nc3cc(C)ccn3c2C[C@H]2CN(C(=O)OC)CCO2)c(F)c1 [BLU-5937, reference compound]
